Data: US8853214B2, “Pyridazine compounds for controlling invertebrate pests” (BASF SE, priority 2010, dated 2014)

Test system: Aphis craccivora
Assay: Cowpea aphid (Aphis craccivora) spray test on potted cowpea plants
Assay type: in vivo
Conditions: in comparison with untreated controls, population reduction assessed after 24, 72 and 120 hours
Description: II.1 Cowpea Aphid (Aphis craccivora)
The active compounds were formulated in 50:50 (vol:vol) acetone:water. The test solution was prepared at the day of use.
Potted cowpea plants colonized with 100-150 aphids of various stages were sprayed after the pest population had been recorded. Population reduction was assessed after 24, 72, and 120 hours.

SMILES: O=C(Nc1ccnnc1)c1ccco1 [II.31, Furan-2-carboxylic acid pyridazin-4-ylamide]
- mortality at 500 ppm: ≥ 75%
